Laboratory results reported in patent US11713335B2, “Aminocoumarin compounds and methods of their use” (President and Fellows of Harvard College, priority 2018, dated 2023).
Values after ≈ are worked out from the molar mass of the structure shown. Like-named read-outs stand apart in the source and are kept apart here.

Tests used:
[1] = test system: E. coli 25922; assay: Minimal inhibitory concentration, E. coli 25922; format: cell-based; details: 16 hour minimal inhibitory concentration at 37° C., read-out: MIC (μM) E. coli 25922
In short: (§1)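 Overnight cultures in LB (TSA for S. aureus) at 37 °C, diluted 1:100 twice, then exposed to twofold serial dilutions of compound from DMSO stock. Plates incubated unshaken 16 h at 37 °C and read at OD600. MIC (µM) is the lowest concentration inhibiting growth.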

[2] = test system: K. pneumoniae 700721; assay: Minimal inhibitory concentration, K. pneumoniae 700721; format: cell-based; details: 16 hour minimal inhibitory concentration at 37° C., read-out: MIC (μM) K. pneumoniae 700721
In short: as §1

[3] = test system: E. coli MC4100; assay: Minimal inhibitory concentration, E. coli MC4100; format: cell-based; details: 16 hour minimal inhibitory concentration at 37° C., read-out: MIC (μM) E. coli MC4100 ara+
In short: as §1

[4] = test system: A. baumannii 19606; assay: Minimal inhibitory concentration, A. baumannii 19606; format: cell-based; details: 16 hour minimal inhibitory concentration at 37° C., read-out: MIC (μM) A. baumannii 19606
In short: as §1

[5] = test system: E. cloacae 13047; assay: Minimal inhibitory concentration, E. cloacae 13047; format: cell-based; details: 16 hour minimal inhibitory concentration at 37° C., read-out: MIC (μM) E. cloacae 13047
In short: as §1

[6] = test system: S. aureus MW2; assay: Minimal inhibitory concentration, S. aureus MW2; format: cell-based; details: 16 hour minimal inhibitory concentration at 37° C., read-out: MIC (μM) S. aureus MW2 (MRSA)
In short: as §1

[7] = test system: S. aureus RN4220; assay: Minimal inhibitory concentration, S. aureus RN4220; format: cell-based; details: 16 hour minimal inhibitory concentration at 37° C., read-out: MIC (μM) S. aureus RN4220
In short: as §1

[8] = test system: WT E. coli; assay: Minimal inhibitory concentration in wild-type E. coli; format: cell-based, Escherichia coli; details: wild-type E. coli, 37° C., 16 hours, read-out: MIC (μM) in WT E. coli
Protocol: General Procedure for Determination of Minimal Inhibitory Concentrations
Overnight cultures (5 mL) of bacterial strains were grown in LB media or TSA media (for S. aureus) at 37° C. and with shaking at 220 rpm until saturation. The overnight culture was diluted serially 1:100 (50 μL in 5 mL sterile media) and then 1:100 (250 μL in 25 mL sterile media). The 25 mL of diluted culture was then dispensed to a sterile 96 well plate (Corning #3370). 198 μL of culture were dispensed into row A and 100 μL of this culture were dispensed into rows B-H. Aminocoumarin compound (DMSO stock) were added to the first row and then the row was mixed by pipetting. 100 μL of culture from row A were transferred to row B and the serial dilution continued until the final 100 μL from row H were discarded. The plate was incubated without shaking in a 37° C. for 16 hours and then read by visible light spectrophotometer (Molecular Devices) at 600 nm. The minimal inhibitory concentration (MIC) was determined as the lowest concentration of compound concentration that inhibited the growth of bacteria.

[9] = Acinetobacter baumannii, 19606, 16 h
[10] = Staphylococcus aureus, MRSA, 16 h
[11] = Staphylococcus aureus, RN4220, 16 h

Structure (SMILES) | MIC [1] | MIC [2] | MIC [3] | MIC [4] | MIC [5] | MIC [6] | MIC [7] | MIC [8] | MIC ([1]; Escherichia coli, 25922, 16 h) | MIC ([2]; Klebsiella pneumoniae, 700721) | MIC ([3]; Escherichia coli, MC4100, 16 h) | MIC [4, 9] | MIC ([5]; Enterobacter cloacae, 13047) | MIC [6, 10] | MIC [7, 11] | MIC ([8]; Escherichia coli)
CO[C@@H]1[C@@H](OC(N)=O)[C@@H](O)[C@H](Oc2ccc3c(O)c(NC(=O)c4cccc(C5CCC5)c4)c(=O)oc3c2C)OC1(C)C [Compound 53] | >200 µM | >100 µM | >200 µM | >50 µM | >100 µM | 11 µM (≈ 6.41 µg/mL) | 11 µM (≈ 6.41 µg/mL) | >300 µM | – | – | – | – | – | – | – | –
CO[C@@H]1[C@@H](OC(N)=O)[C@@H](O)[C@H](Oc2ccc3c(O)c(NC(=O)c4cc(O)c(O)c(-c5ccc6ccccc6c5)c4)c(=O)oc3c2C)OC1(C)C [Compound 96] | 146 µM (≈ 100 µg/mL) | 76 µM (≈ 52.2 µg/mL) | >200 µM | 18 µM (≈ 12.4 µg/mL) | >100 µM | 9 µM (≈ 6.18 µg/mL) | 9 µM (≈ 6.18 µg/mL) | >300 µM | – | – | – | – | – | – | – | –
CO[C@@H]1[C@@H](OC(N)=O)[C@@H](O)[C@H](Oc2ccc3c(O)c(NC(=O)c4cccc5ccn(C)c45)c(=O)oc3c2C)OC1(C)C [Compound 74] | >200 µM | >100 µM | >200 µM | >50 µM | >100 µM | >100 µM | >100 µM | >300 µM | – | – | – | – | – | – | – | –
CO[C@@H]1[C@@H](OC(N)=O)[C@@H](O)[C@H](Oc2ccc3c(O)c(NC(=O)c4cc(-c5ccccc5)cc(-c5ccccc5)c4)c(=O)oc3c2C)OC1(C)C [Compound 75] | >200 µM | >100 µM | >200 µM | >50 µM | >100 µM | 9 µM (≈ 6.13 µg/mL) | 18 µM (≈ 12.3 µg/mL) | >300 µM | – | – | – | – | – | – | – | –
CO[C@@H]1[C@@H](OC(N)=O)[C@@H](O)[C@H](Oc2ccc3c(O)c(NC(=O)c4ccc5c(ccn5C)c4)c(=O)oc3c2C)OC1(C)C.Cl [Compound 73] | >200 µM | >100 µM | >200 µM | >50 µM | >100 µM | 81 µM | >100 µM | >300 µM | – | – | – | – | – | – | – | –
CO[C@@H]1[C@@H](OC(N)=O)[C@@H](O)[C@H](Oc2ccc3c(O)c(NC(=O)c4ccc(O)c(CC=C(C)C)c4)c(=O)oc3c2C)OC1(C)C [Novobiocin, novobiocin, reference compound] | – | – | – | – | – | – | – | – | 40 µM (≈ 24.5 µg/mL) | > 100 µM | 59 µM (≈ 36.1 µg/mL) | 1.27 µM (≈ 0.778 µg/mL) | > 100 µM | 0.25 µM (≈ 0.153 µg/mL) | 0.2 µM (≈ 0.123 µg/mL) | 59 µM (≈ 36.1 µg/mL)
CO[C@@H]1[C@@H](OC(N)=O)[C@@H](O)[C@H](Oc2ccc3c(O)c(NC(=O)c4cccc(-c5cccc(OC(F)(F)F)c5)c4)c(=O)oc3c2C)OC1(C)C [Compound 58] | >200 µM | >100 µM | 89 µM (≈ 61.3 µg/mL) | 18 µM (≈ 12.4 µg/mL) | >100 µM | 0.18 µM (≈ 0.124 µg/mL) | 0.36 µM (≈ 0.248 µg/mL) | 89 µM (≈ 61.3 µg/mL) | – | – | – | – | – | – | – | –
CO[C@@H]1[C@@H](OC(N)=O)[C@@H](O)[C@H](Oc2ccc3c(O)c(NC(=O)c4cc5ccccc5[nH]4)c(=O)oc3c2C)OC1(C)C [Compound 16] | >200 µM | >100 µM | >200 µM | >50 µM | >100 µM | >100 µM | >100 µM | >300 µM | – | – | – | – | – | – | – | –
COc1ccccc1-c1cccc(C(=O)Nc2c(O)c3ccc(O[C@@H]4OC(C)(C)[C@H](OC)[C@@H](OC(N)=O)[C@H]4O)c(C)c3oc2=O)c1 [Compound 50] | 39 µM (≈ 24.8 µg/mL) | >100 µM | 40 µM (≈ 25.4 µg/mL) | >50 µM | >100 µM | 10 µM (≈ 6.35 µg/mL) | 19 µM (≈ 12.1 µg/mL) | 40 µM (≈ 25.4 µg/mL) | – | – | – | – | – | – | – | –
CO[C@@H]1[C@@H](OC(N)=O)[C@@H](O)[C@H](Oc2ccc3c(O)c(NC(=O)c4ccc(O)c(C/C=C/C(=O)O)c4)c(=O)oc3c2C)OC1(C)C [Compound 82] | >200 µM | >100 µM | >200 µM | >50 µM | >100 µM | >100 µM | >100 µM | >300 µM | – | – | – | – | – | – | – | –
CO[C@@H]1[C@@H](OC(N)=O)[C@@H](O)[C@H](Oc2ccc3c(O)c(NC(=O)c4cc(O)cc(-c5ccccc5)c4)c(=O)oc3c2C)OC1(C)C [Compound 78] | 40 µM (≈ 24.8 µg/mL) | >100 µM | 59 µM (≈ 36.6 µg/mL) | 40 µM (≈ 24.8 µg/mL) | >100 µM | 4 µM (≈ 2.48 µg/mL) | 5 µM (≈ 3.1 µg/mL) | 59 µM (≈ 36.6 µg/mL) | – | – | – | – | – | – | – | –
COc1ccc(-c2cccc(C(=O)Nc3c(O)c4ccc(O[C@@H]5OC(C)(C)[C@H](OC)[C@@H](OC(N)=O)[C@H]5O)c(C)c4oc3=O)c2)cc1 [Compound 46] | – | – | – | – | – | – | – | – | > 200 µM | > 100 µM | > 200 µM | > 50 µM | > 100 µM | 3 µM (≈ 1.9 µg/mL) | 5 µM (≈ 3.17 µg/mL) | > 300 µM
CO[C@@H]1[C@@H](OC(N)=O)[C@@H](O)[C@H](Oc2ccc3c(O)c(NC(=O)c4cccc(N5CCOCC5)c4)c(=O)oc3c2C)OC1(C)C [Compound 23] | – | – | – | – | – | – | – | – | > 200 µM | > 100 µM | > 200 µM | > 50 µM | > 100 µM | 82 µM (≈ 50.3 µg/mL) | 82 µM (≈ 50.3 µg/mL) | > 300 µM
CO[C@@H]1[C@@H](OC(N)=O)[C@@H](O)[C@H](Oc2ccc3c(O)c(NC(=O)c4ccc5ccccc5c4)c(=O)oc3c2C)OC1(C)C [Compound 4] | – | – | – | – | – | – | – | – | > 200 µM | > 100 µM | > 200 µM | > 50 µM | > 100 µM | 22 µM (≈ 12.7 µg/mL) | 22 µM (≈ 12.7 µg/mL) | > 300 µM
CO[C@@H]1[C@@H](OC(N)=O)[C@@H](O)[C@H](Oc2ccc3c(O)c(NC(=O)c4cccc(-c5ccccc5)c4)c(=O)oc3c2C)OC1(C)C [Compound 1] | – | – | – | – | – | – | – | – | 41 µM (≈ 24.8 µg/mL) | > 100 µM | 26 µM (≈ 15.7 µg/mL) | > 50 µM | > 100 µM | 5 µM (≈ 3.02 µg/mL) | 5 µM (≈ 3.02 µg/mL) | 26 µM (≈ 15.7 µg/mL)
CCc1ccc(-c2cccc(C(=O)Nc3c(O)c4ccc(O[C@@H]5OC(C)(C)[C@H](OC)[C@@H](OC(N)=O)[C@H]5O)c(C)c4oc3=O)c2)cc1 [Compound 54] | 79 µM (≈ 50 µg/mL) | 79 µM (≈ 50 µg/mL) | 40 µM (≈ 25.3 µg/mL) | 20 µM (≈ 12.7 µg/mL) | >100 µM | 0.99 µM (≈ 0.626 µg/mL) | 0.99 µM (≈ 0.626 µg/mL) | 40 µM (≈ 25.3 µg/mL) | – | – | – | – | – | – | – | –
CO[C@@H]1[C@@H](OC(N)=O)[C@@H](O)[C@H](Oc2ccc3c(O)c(NC(=O)C4CC4)c(=O)oc3c2C)OC1(C)C [Compound 13] | – | – | – | – | – | – | – | – | > 200 µM | > 100 µM | > 200 µM | > 50 µM | > 100 µM | > 100 µM | > 100 µM | > 300 µM
CO[C@@H]1[C@@H](OC(N)=O)[C@@H](O)[C@H](Oc2ccc3c(O)c(NC(=O)c4cc(-c5ccccc5)c(OCc5ccccc5)cc4OCc4ccccc4)c(=O)oc3c2C)OC1(C)C [Compound 66] | >200 µM | >100 µM | >200 µM | >50 µM | >100 µM | >100 µM | >100 µM | >300 µM | – | – | – | – | – | – | – | –
CO[C@@H]1[C@@H](OC(N)=O)[C@@H](O)[C@H](Oc2ccc3c(O)c(NC(=O)c4cccc(-c5cccc(C(C)C)c5)c4)c(=O)oc3c2C)OC1(C)C [Compound 61] | 77 µM (≈ 49.8 µg/mL) | >100 µM | 59 µM (≈ 38.2 µg/mL) | 10 µM (≈ 6.47 µg/mL) | >100 µM | 0.19 µM (≈ 0.123 µg/mL) | 0.39 µM (≈ 0.252 µg/mL) | 59 µM (≈ 38.2 µg/mL) | – | – | – | – | – | – | – | –
